Measured values taken from patent US9518041B2, “(+)-5-(3,4-difluorophenyl)-5-[(3-methyl-2-oxopyridin-1(2H)-yl)methyl]imidazolidine-2,4-dione and drug containing same” (KAKEN PHARMACEUTICAL CO., LTD., priority 2013, dated 2016).
pIC50: −log10 of the molar value.

How the values were obtained:
[1] = tested on: auricular oedema induced by TPA; test: Inhibition test of auricular oedema induced by single application of TPA in mouse; format: in vivo, BALB/c mice
Method: Auricular oedema was induced by applying 54 μmol/L TPA-acetone solution on both the inner and outer sides of the left ear of BALB/c mice (application volume of 54 μmol/L TPA-acetone solution is 10 μL for each side of the left ear (i.e. 1.08 nmol TPA/auricle)). For a non-induced group, acetone was similarly applied instead of the 54 μmol/L TPA-acetone solution. […] Auricle thickness was measured under ether anesthesia the day before TPA application and 6 hours after TPA application for evaluation of the auricular oedema inhibition effect of the test substance based on the increase in auricle thickness as an index.
The auricular oedema inhibition rate (%) of the test substance was calculated based on the following formula using (A) the average value of the increase in auricular thickness of the group administered with the test substance, (B) the average value of the increase in auricular thickness of the non-induced group, and (C) the average value of the increase in auricular thickness of the control group. […]
The auricular oedema inhibition rate (%) of etanercept was calculated based on the following formula using (B) the average value of the increase in auricular thickness of the non-induced group, (D) the average value of the increase in auricular thickness of the etanercept group, and (E) the average value of the increase in auricular thickness of the hIgG group. […]

[2] = target: T1, TACE (Homo sapiens, UniProt P78536); test: TACE inhibition test (in vitro), fluorescent synthetic substrate; format: biochemical; conditions: 37° C., 1.5 hours, read-out: TACE inhibitory activity, IC50 value
T1 construct: made in house; host or cells: mammalian cells or insect cells
Method: The nucleotide sequence of TACE has been reported by Moss et al. (Moss, M. L. et al., Nature 1997, 385, 733-736). Accordingly, the cDNA of TACE was obtained according to the prescribed method from THP-1 cells or the like, and then incorporated the cDNA into an expression vector. Next, this vector was transformed into mammalian cells or insect cells, and TACE expression was obtained. […]
Namely, 90 μL of an enzyme solution prepared with an assay buffer A (50 mM tris-hydrochloric acid buffer (pH 7.5) including 200 mM sodium chloride, 5 mM calcium chloride, 10 μM zinc sulfate, and 2 mg/mL bovine serum albumin) and 90 μL of a fluorescent synthetic substrate prepared with an assay buffer B (50 mM tris-hydrochloric acid buffer (pH 7.5) including 200 mM sodium chloride, 5 mM calcium chloride, 10 μM zinc sulfate, and 0.05% PLURONIC F-68) were mixed together, and reacted at 37° C. for 1.5 hours. Enzyme activity was then determined by measuring with a fluorescence intensity meter (Labsystems, Fluoroskan Ascent) at an excitation wavelength of 355 nm and a measurement wavelength of 460 nm. […]

[3] = target: T2, human MMP-8 (Homo sapiens, UniProt P22894); test: MMP-8 inhibition test; format: biochemical; conditions: read-out: Inhibitory activity (IC50, nM) MMP-8
T2 construct: purchased Calbiochem 444229
Method: MMP inhibition tests can be carried out, for example, using a fluorescent synthetic substrate based on the methods described in Bickett et al. (D. Mark Bickett et al., Anal. Biochem., 1993, 212, 58-64) and Nagase et al. (H. Nagase et al., J. Biol. Chem., 1994, 269, 20952-20957). The method for each MMP inhibition test is shown below.
90 μL (29 ng) of human MMP-8 (Calbiochem #444229) was mixed with 10 μL of 10 mM APMA, and activated by reacting at 37° C. for 1 hour. 10 μL of the resultant enzyme solution was diluted to 90 μL with an assay buffer A. The mixture was added to 90 μL of a 20 μM fluorescent substrate (MOCAc-Pro-Leu-Gly-Leu-A2pr(Dnp)-Ala-Arg-NH2, Peptide Institute Inc., #3163-v) (SEQ ID NO: 3) prepared with an assay buffer B, and reacted at 37° C. for 5 hours. Enzyme activity was then determined by measuring with a fluorescence intensity meter (Labsystems, Fluoroskan Ascent) at an excitation wavelength of 320 nm and a measurement wavelength of 405 nm.
From the enzyme activity in the presence or the absence of the test substance, the inhibition rate was determined, and the 50% inhibitiory concentration (IC50) of the test substance was calculated.

T2 sequence (P22894 101-467): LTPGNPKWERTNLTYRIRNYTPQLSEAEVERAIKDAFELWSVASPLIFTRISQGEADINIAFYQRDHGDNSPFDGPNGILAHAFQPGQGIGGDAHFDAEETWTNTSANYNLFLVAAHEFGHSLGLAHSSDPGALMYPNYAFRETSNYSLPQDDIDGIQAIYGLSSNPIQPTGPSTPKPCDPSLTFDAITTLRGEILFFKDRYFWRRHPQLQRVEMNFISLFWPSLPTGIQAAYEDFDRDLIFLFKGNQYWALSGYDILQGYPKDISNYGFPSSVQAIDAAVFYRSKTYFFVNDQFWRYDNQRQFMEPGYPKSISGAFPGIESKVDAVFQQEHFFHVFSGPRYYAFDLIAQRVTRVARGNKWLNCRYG
T1 sequence (P78536 215-824): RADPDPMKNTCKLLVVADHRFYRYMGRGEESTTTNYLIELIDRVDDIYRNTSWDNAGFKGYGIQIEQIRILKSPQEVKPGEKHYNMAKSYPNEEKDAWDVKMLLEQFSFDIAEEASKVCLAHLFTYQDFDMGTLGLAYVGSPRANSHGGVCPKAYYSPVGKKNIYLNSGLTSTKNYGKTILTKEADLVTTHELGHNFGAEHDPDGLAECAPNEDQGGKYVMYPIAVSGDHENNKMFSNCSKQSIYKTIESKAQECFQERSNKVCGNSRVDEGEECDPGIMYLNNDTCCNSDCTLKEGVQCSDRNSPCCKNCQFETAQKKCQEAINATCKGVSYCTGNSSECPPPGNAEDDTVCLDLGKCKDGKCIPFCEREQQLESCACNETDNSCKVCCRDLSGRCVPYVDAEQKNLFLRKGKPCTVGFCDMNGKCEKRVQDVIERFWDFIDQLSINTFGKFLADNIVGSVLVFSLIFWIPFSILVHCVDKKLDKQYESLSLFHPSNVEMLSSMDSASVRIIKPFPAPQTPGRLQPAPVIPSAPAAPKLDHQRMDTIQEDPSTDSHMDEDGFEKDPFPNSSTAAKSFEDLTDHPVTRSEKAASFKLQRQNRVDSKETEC

Structure (SMILES): Cc1cccn(CC2(c3ccc(F)c(F)c3)NC(=O)NC2=O)c1=O (single isomer, unassigned; (+)) [(+)-5-(3,4-difluorophenyl)-5-[(3-methyl-2-oxopyridin-1(2H)-yl)methyl]imidazolidine-2,4-dione]
- Auricular oedema inhibition rate (%) ([1]; BALB/c mice, topical 1 w/v % solution, 10 μL each side of left ear, 1 hour before TPA, auricle thickness 6 hours after TPA): 62%
- Etanercept ratio (inhibition rate of test substance / inhibition rate of etanercept) ([1]; etanercept 1 mg/mouse intravenously as positive control): 3.4
- pIC50 [2]: ≥ 7.00
- IC50 [3]: > 10000 nM
